In patent US12459951B2, “Compounds that interact with RAS superfamily proteins for treatment of cancers, inflammatory diseases, rasopathies, and fibrotic disease” (SHY Therapeutics, LLC, priority 2022, dated 2025):

Assays:
[1] = tested on: MiaPaca-2 (expressing KRAS G12C mutant); assay: Proliferation Assay (Cell Viability Assay); format: cell-based; conditions: Homo sapiens, MIA PaCa-2; read-out: Proliferation in MiaPaca-2: IC50
Method in brief: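 MiaPaca-2 cells (KRAS G12C) were grown in DMEM-high glucose with 10% FBS, seeded at 2000–5000 cells/well and cultured overnight. Compounds were added at 10 μM final, or as serial dilutions for IC50, in 0.3% DMSO/10% FBS for 2–4 days at 37 °C, 5% CO2. Viability was measured with CellTiter 96 Aqueous One and % inhibition calculated.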

IL6 = assay: IL-6 Quantification Assay (ELISA), LPS-stimulated RAW 264.7; format: cell-based; set-up: inhibition: dose or concentration left out as unconfirmed; conditions: Mus musculus, RAW264.7; read-out: IL-6: % inh.
KRas G12D mutant = assay: Ras GTP Binding Domain Inhibition Assay (Ras Superfamily Assay); conditions: 20 μM compound; for KRas G12D mutant + SOS: % inh.: with SOS; for KRas G12D mutant: % inh.: without SOS
Method in brief: (§1)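 Binding of 100 nM fluorescent GTP (Cy3 or Cy5, 45 min, room temperature) was read after washes from plate-captured His-tagged protein. Beforehand, compounds at 20 μM or in dilution series for IC50 sat 3 h on the protein in Tris buffer pH 7.4 or 7.0 with 1% DMSO, Sos GEF optionally added for the last hour.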

KRas wild type = assay: as above; conditions: 20 μM compound; for KRas wild type + SOS: % inh.: with SOS; for KRas wild type: % inh.: without SOS
Method in brief: as §1

Row | Structure (SMILES) | IC50 [1] [µM] | inhibition (IL6) [%] | KRas G12D mutant + SOS: % inh. (KRas G12D mutant) | KRas G12D mutant: % inh. (KRas G12D mutant) | KRas wild type + SOS: % inh. (KRas wild type) | KRas wild type: % inh. (KRas wild type)
1 | COc1cc(Nc2nc(-c3ccccn3)nn3cc(-c4ccn(C(C)C)n4)c(C)c23)ncn1 [Compound 13, 6-(1-Isopropyl-1H-pyrazol-3-yl)-N-(6-methoxypyrimidin-4-yl)-5-methyl-2-(pyridin-2-yl)pyrrolo[2,1-f][1,2,4]triazin-4-amine] | 0.15 to 0.5 | 75 to 100 | 0 (0 = 0% inhibition) | A (A = 1-25% inhibition) | 0 (0 = 0% inhibition) | A (A = 1-25% inhibition)
2 | COc1cccc(Nc2nc(-c3ccccn3)nn3cc(-c4ccn(C(C)C)n4)c(C)c23)n1 [Compound 14, 6-(1-Isopropyl-1H-pyrazol-3-yl)-N-(6-methoxypyridin-2-yl)-5-methyl-2-(pyridin-2-yl)pyrrolo[2,1-f][1,2,4]triazin-4-amine] | > 1 | 50 to 74 | 0 (0 = 0% inhibition) | A (A = 1-25% inhibition) | A (A = 1-25% inhibition) | 0 (0 = 0% inhibition)
3 | COc1cccc(-c2cn3nc(-c4nccn4C)nc(O)c3c2C)c1Cl [Compound 15, 6-(2-Chloro-3-methoxyphenyl)-5-methyl-2-(1-methyl-1H-imidazol-2-yl)pyrrolo[2,1-f][1,2,4]triazin-4-ol] | > 1 | 50 to 74 | 0 (0 = 0% inhibition) | A (A = 1-25% inhibition) | A (A = 1-25% inhibition) | A (A = 1-25% inhibition)
4 | COCCNc1nc(-c2nccn2C)nn2cc(-c3cccc(OC)c3Cl)c(C)c12 [Compound 16, 6-(2-Chloro-3-methoxyphenyl)-N-(2-methoxyethyl)-5-methyl-2-(1-methyl-1H-imidazol-2-yl)pyrrolo[2,1-f][1,2,4]triazin-4-amine] | > 1 | 50 to 74 | 0 (0 = 0% inhibition) | A (A = 1-25% inhibition) | A (A = 1-25% inhibition) | 0 (0 = 0% inhibition)
5 | COc1cc(Nc2nc(-c3nccn3C)nn3cc(-c4cccnc4)c(-c4cccnc4)c23)ncn1 [Compound 170, N-(6-Methoxypyrimidin-4-yl)-2-(1-methyl-1H-imidazol-2-yl)-5,6-di(pyridin-3-yl)pyrrolo[2,1-f][1,2,4]triazin-4-amine] | < 0.15 | 50 to 74 | D (D = 76-100% inhibition) | D (D = 76-100% inhibition) | D (D = 76-100% inhibition) | D (D = 76-100% inhibition)
6 | CO[C@H]1C[C@H](Nc2nc(-c3nccn3C)nn3cc(-c4cccnc4)c(-c4cccnc4)c23)C1 [Compound 171, N-((1r,3r)-3-Methoxycyclobutyl)-2-(1-methyl-1H-imidazol-2-yl)-5,6-di(pyridin-3-yl)pyrrolo[2,1-f][1,2,4]triazin-4-amine] | > 1 | 0 | A (A = 1-25% inhibition) | A (A = 1-25% inhibition) | B (B = 26-49% inhibition) | A (A = 1-25% inhibition)
7 | Cc1c(-c2ccn(C)n2)cn2nc(-c3nccn3C)nc(O)c12 [Compound 172, 5-Methyl-2-(1-methyl-1H-imidazol-2-yl)-6-(1-methyl-1H-pyrazol-3-yl)pyrrolo[2,1-f][1,2,4]triazin-4-ol] | > 1 | 1 to 24 | B (B = 26-49% inhibition) | B (B = 26-49% inhibition) | B (B = 26-49% inhibition) | B (B = 26-49% inhibition)
